The source of these data is patent US7101878B1 (Agouron Pharmaceuticals, Inc., priority 1998, dated 2006).

For orientation: IC50 means the midpoint of a concentration-inhibition curve.

In the first data set the target is T1, human GnRH receptor (Homo sapiens, UniProt P30968).
T1 construct: expressed in transfected cells; host or cells: HEK 293 (hGnRH-R/293, from Dr. Stuart Sealfon)
T1 sequence (P30968 1-328): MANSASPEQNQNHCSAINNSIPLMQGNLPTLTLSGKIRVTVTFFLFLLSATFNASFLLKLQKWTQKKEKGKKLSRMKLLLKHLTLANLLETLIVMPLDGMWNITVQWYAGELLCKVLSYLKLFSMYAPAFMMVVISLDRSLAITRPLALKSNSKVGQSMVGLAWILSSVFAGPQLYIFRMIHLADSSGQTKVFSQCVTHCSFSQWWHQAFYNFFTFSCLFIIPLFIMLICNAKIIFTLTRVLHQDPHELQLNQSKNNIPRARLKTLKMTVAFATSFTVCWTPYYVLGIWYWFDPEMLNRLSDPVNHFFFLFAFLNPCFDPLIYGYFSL
The experiment in a line: Radioligand binding, 125I-GnRH-A displacement, membranes of HEK 293 cells with human GnRH receptor. Conditions: 1 h, substrate remaining; 10 uM compound; closer to zero = closer to 100% inhibition; read-out: S%R 10 uM hGnRHR. The procedure, abridged: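 After filtration and PBS washes, bound radioactivity was counted by scintillation and IC50 derived. Identical conditions applied for non-human receptors.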
`Cc1cc2c(cc1Cc1ccc(C(=O)Nc3cccnc3)o1)C(C)(C)CCC2(C)C` [Compound 320]: the remaining activity at 10 µM stood at 9%. As for `CCN(CC)CCNC(=O)c1ccc(NC(=O)c2ccc(Cc3cc4c(cc3C)C(C)(C)CCC4(C)C)o2)cc1` [Compound 321], the remaining activity at 10 µM turned out to be 55%.

As to `Cc1cc2c(cc1Cc1ccc(C(=O)Nc3cccc(CO)c3)o1)C(C)(C)CCC2(C)C` [Compound 322], the remaining activity at 10 µM was 4%. Take `Cc1cc2c(cc1Cc1ccc(C(=O)Nc3ccc(CCO)cc3)o1)C(C)(C)CCC2(C)C` [Compound 323]: the remaining activity at 10 µM came out at 1%. For the compound `Cc1cc2c(cc1Cc1ccc(C(=O)Nc3nc[nH]n3)o1)C(C)(C)CCC2(C)C` [Compound 324], the remaining activity at 10 µM is 27%. As to `COc1ccc(NC(=O)c2ccc(Cc3cc4c(cc3C)C(C)(C)CCC4(C)C)o2)cn1` [Compound 325], the remaining activity at 10 µM was found to be 3%. In the case of `Cc1ccc(-n2nc(C)cc2NC(=O)c2ccc(Cc3cc4c(cc3C)C(C)(C)CCC4(C)C)o2)cc1` [Compound 326], the remaining activity at 10 µM came to 51%. On to `Cc1cc2c(cc1Cc1ccc(C(=O)Nc3ccccc3CCO)o1)C(C)(C)CCC2(C)C` [Compound 327], for which the remaining activity at 10 µM stood at 0%. For the compound `Cc1cc(NC(=O)c2ccc(Cc3cc4c(cc3C)C(C)(C)CCC4(C)C)o2)n(-c2ccccc2)n1` [Compound 328], the remaining activity at 10 µM was 33%. For the compound `CC1=CC(NC(=O)c2ccc(Cc3cc4c(cc3C)C(C)(C)CCC4(C)C)o2)=NC1c1ccccc1` (stereo not shown) [Compound 329], the remaining activity at 10 µM stood at 31%. In the case of `COc1ccc(OC)c(NC(=O)c2ccc(Cc3cc4c(cc3C)C(C)(C)CCC4(C)C)o2)c1` [Compound 330], the remaining activity at 10 µM was found to be 10%. The same measure, in the same setting: to `Cc1cnc(NC(=O)c2ccc(Cc3cc4c(cc3C)C(C)(C)CCC4(C)C)o2)s1` [Compound 331] belongs 49%; to `COc1ccc(NC(=O)c2ccc(Cc3cc4c(cc3C)C(C)(C)CCC4(C)C)o2)c(OC)c1` [Compound 332], 1%; to `Cc1cc2c(cc1Cc1ccc(C(=O)Nc3ccccc3CO)o1)C(C)(C)CCC2(C)C` [Compound 333], 28%. Same read-out and setting: to `Cc1cc2c(cc1Cc1ccc(C(=O)Nc3nccs3)o1)C(C)(C)CCC2(C)C` [Compound 334] belongs 34%; to `Cc1cc2c(cc1Cc1ccc(C(=O)Nc3ccc(N(C)C)cc3)o1)C(C)(C)CCC2(C)C` [Compound 335], 2%. Turning to `Cc1cc2c(cc1Cc1ccc(C(=O)Nc3nnc(C4CC4)s3)o1)C(C)(C)CCC2(C)C` [Compound 336], the remaining activity at 10 µM came out at 57%. Still for that read-out and setting: the same measure for `COc1cccc(NC(=O)c2ccc(Cc3cc4c(cc3C)C(C)(C)CCC4(C)C)o2)c1` [Compound 337]: 6%; for `CCOc1ccc(NC(=O)c2ccc(Cc3cc4c(cc3C)C(C)(C)CCC4(C)C)o2)cc1` [Compound 338]: 26%; for `Cc1cc2c(cc1Cc1ccc(C(=O)Nc3ccc(CO)cc3)o1)C(C)(C)CCC2(C)C` [Compound 339]: 17%.

The data set is the same for the next values; noted with them: binding assay conditions.
As for `CCCc1nc(NC(=O)c2ccc(Cc3cc4c(cc3C)C(C)(C)CCC4(C)C)o2)ncc1C(=O)OCC` [Compound 198], the “insolubility remark in hGnRH IC50 cell” value is listed as “Insol. >3 uM”.

Staying with this data set, now noted: read-out: hGnRH IC50.
Regarding `COc1cc(OC)c(NC(=O)c2ccc(Cc3c(C)c(C)c(C)c(C)c3C)o2)c(OC)c1` [Compound 197], the IC50 turned out to be 1040 nM.

For the compound `CCCc1nc(NC(=O)c2ccc(Cc3cc4c(cc3C)C(C)(C)CCC4(C)C)o2)ncc1C(=O)OCC` [Compound 198], the IC50 amounted to 780 nM.

Take `CCOC(=O)N1CCC(C)(C)c2c(Cc3ccc(C(=O)Nc4c(OC)cc(OC)cc4OC)o3)c(OC)cc(OC)c21` [Compound 200.5]: the IC50 turned out to be 1230 nM. Turning to `COc1ccc(OC)c(Cc2ccc(C(=O)Nc3c(OC)cccc3OC)o2)c1` [Compound 202], the IC50 was found to be 1420 nM. As for `COc1cccc(OC)c1NC(=O)c1ccc(Cc2c(C)c(C)c(C)c(C)c2C)o1` [Compound 204], the IC50 amounted to 1270 nM.

Regarding `Cc1cc2c(cc1Cc1ccc(C(=O)Nc3ncc([N+](=O)[O-])cn3)o1)C(C)(C)CCC2(C)C` [Compound 205], the IC50 was more than 10000 nM.

With `COc1cc(OC)c(NC(=O)c2ccc(Cc3cc(OC)cc(OC)c3OC)o2)c(OC)c1` [Compound 208], the IC50 turned out to be 8620 nM. As for `COc1cc(OC)c(NC(=O)c2ccc(Cc3c(OC)ccc(OC)c3OC)o2)c(OC)c1` [Compound 209], the IC50 is 4380 nM.

Turning to `COc1ccc(OC)c(OC)c1Cc1ccc(C(=O)Nc2c(OC)cccc2OC)o1` [Compound 211], the IC50 worked out at 1320 nM. With `Cc1cc2c(cc1Cc1ccc(C(=O)N3CCN(CCN(Cc4ccccn4)C(=O)c4ccc(Cc5cc6c(cc5C)C(C)(C)CCC6(C)C)o4)CC3)o1)C(C)(C)CCC2(C)C` [Compound 213], the IC50 is more than 10000 nM. As to `Cc1cc2c(cc1Cc1ccc(C(=O)N(CCCO)Cc3ccccn3)o1)C(C)(C)CCC2(C)C` [Compound 214], the IC50 is more than 10000 nM. Turning to `Cc1cc2c(cc1Cc1ccc(C(=O)N(Cc3ccccn3)CC(C)C)o1)C(C)(C)CCC2(C)C` [Compound 215], the IC50 was found to be 7800 nM. Same read-out and setting: to `CCOC(=O)CN(Cc1ccccn1)C(=O)c1ccc(Cc2cc3c(cc2C)C(C)(C)CCC3(C)C)o1` [Compound 216] belongs 4400 nM; to `COc1cc(OC)c(NC(=O)c2cc(Cc3cc4c(cc3C)C(C)(C)CCC4(C)C)on2)c(OC)c1` [Compound 218], 6460 nM. On to `COc1cc(OC)c(Cc2ccc(C(=O)Nc3c(OC)cc(OC)cc3OC)o2)c(OC)c1` [Compound 219], for which the IC50 turned out to be 875 nM.

As to `COc1cc(OC)c(Cc2ccc(C(=O)Nc3c(OC)cccc3OC)o2)c(OC)c1` [Compound 220], the IC50 was found to be 630 nM. On the same count and under the same terms, the same measure for `COc1cc(OC)c(NC(=O)c2ccc(Cc3c(OC)ccc4c3CCCC4=O)o2)c(OC)c1` [Compound 223]: 1660 nM; for `COc1cc(OC)c(NC(=O)c2ccc(Cc3cc4c(cc3C)C(C)(C)CCC4(C)C)n2Cc2ccccc2)c(OC)c1` [Compound 224]: more than 10000 nM; for `COc1cc(OC)c(NC(=O)c2ccc(Cc3cc(OC)c(O)cc3OC)o2)c(OC)c1` [Compound 227]: more than 10000 nM. On the same count and under the same terms, to `COc1cc(OC)c(NC(=O)c2ccc(Cc3cc(C(=O)C(C)(C)C)c(OC)cc3OC)o2)c(OC)c1` [Compound 229] belongs 250 nM; to `COc1cc(OC)c(NC(=O)c2ccc(Cc3cc(C(C)=O)c(C)cc3C)o2)c(OC)c1` [Compound 230], 580 nM; to `COc1cc(C)c(Cl)c(C)c1Cc1ccc(C(=O)NCc2nc3ccccc3[nH]2)o1` [Compound 234], more than 10000 nM. Consider `COc1cc(OC)c(OC)cc1Cc1ccc(C(=O)Nc2c(OC)cccc2OC)o1` [Compound 235], for which the half-maximal inhibitory concentration (IC50) is 3720 nM. `Cc1cc(C)cc(NC(=O)c2ccc(Cc3cc4c(cc3C)C(C)(C)CCC4(C)C)o2)c1` [Compound 236]: the IC50 was determined as 903 nM. Take `COc1cc(C)c(Cl)c(C)c1Cc1ccc(C(=O)NCc2cnc(C)cn2)o1` [Compound 237]: the IC50 was more than 10000 nM. Still for that read-out and setting: the same measure for `CCN(CC)C(=O)c1ccc(Cc2cc3c(cc2C)C(C)(C)CCC3(C)C)o1` [Compound 238]: 7830 nM; for `COc1cccc(OC)c1NC(=O)c1ccc(Cc2cc(C(C)C)c(O)cc2C)o1` [Compound 303]: 320 nM; for `COc1cc(OC)c(NC(=O)c2ccc(Cc3cc(C4CCCCC4)ccc3C)o2)c(OC)c1` [Compound 304]: 303 nM.
